Results as given in patent US20040248860A1, “Use of selective progesterone receptor modulators for the treatment of androgen deficiency” (priority 2002, published 2004).

Assays:
[1] = test system: sex hormone-binding globulin (SHBG); assay: Phase II study of J867: SHBG levels over 12 weeks; type: in vivo, human (female subjects); settings: 12 week treatment
Description: (§1) The effect of SPRMs on testosterone levels and SHBG levels was studied using various doses of J867 over three months. The study was a phase II, multi-center, randomized, double blind, parallel group study of J867 at doses of 5 mg, 10 mg, and 25 mg once a day (QD)compared to placebo. Approximately 120 female subjects between the ages of 18 and 49 were enrolled in the study and randomly assigned to one of the four dosing groups above. During the 12 week study, testosterone and SHBG were measured at screening visits during weeks 2, 4, 8, and 12 of the study.
SHBG levels were also measured at weeks 2, 4, 8, and 12 of the study.

[2] = test system: total testosterone levels; assay: Phase II study of J867: total testosterone levels over 12 weeks; type: in vivo, human (female subjects); settings: for mean testosterone concentration increase over the treatment period: female subjects, 12 week treatment, change from baseline
Description: as §1
FIG. 1 is a graph showing total testosterone levels as a function of time during the study. […] Testosterone concentrations were relatively constant for the group receiving placebo. […] Over the treatment period, the mean testosterone concentrations for the 5 mg QD group increased approximately 7-15 ng/dL; the mean increase for the 10 mg QD group was approximately 15-21 ng/dL; and the mean concentrations observed following treatment with 25 mg QD increased approximately 16-25 ng/dL.

progesterone receptor = target: T1, progesterone receptor (Oryctolagus cuniculus, UniProt P06186); settings: rabbit model, scale of 0-4; cited from earlier work
T1 construct: effects of compounds at the progesterone receptor using a rabbit model; from tissue; host or cells: live rabbit (in vivo)
T1 sequence (P06186 1-930): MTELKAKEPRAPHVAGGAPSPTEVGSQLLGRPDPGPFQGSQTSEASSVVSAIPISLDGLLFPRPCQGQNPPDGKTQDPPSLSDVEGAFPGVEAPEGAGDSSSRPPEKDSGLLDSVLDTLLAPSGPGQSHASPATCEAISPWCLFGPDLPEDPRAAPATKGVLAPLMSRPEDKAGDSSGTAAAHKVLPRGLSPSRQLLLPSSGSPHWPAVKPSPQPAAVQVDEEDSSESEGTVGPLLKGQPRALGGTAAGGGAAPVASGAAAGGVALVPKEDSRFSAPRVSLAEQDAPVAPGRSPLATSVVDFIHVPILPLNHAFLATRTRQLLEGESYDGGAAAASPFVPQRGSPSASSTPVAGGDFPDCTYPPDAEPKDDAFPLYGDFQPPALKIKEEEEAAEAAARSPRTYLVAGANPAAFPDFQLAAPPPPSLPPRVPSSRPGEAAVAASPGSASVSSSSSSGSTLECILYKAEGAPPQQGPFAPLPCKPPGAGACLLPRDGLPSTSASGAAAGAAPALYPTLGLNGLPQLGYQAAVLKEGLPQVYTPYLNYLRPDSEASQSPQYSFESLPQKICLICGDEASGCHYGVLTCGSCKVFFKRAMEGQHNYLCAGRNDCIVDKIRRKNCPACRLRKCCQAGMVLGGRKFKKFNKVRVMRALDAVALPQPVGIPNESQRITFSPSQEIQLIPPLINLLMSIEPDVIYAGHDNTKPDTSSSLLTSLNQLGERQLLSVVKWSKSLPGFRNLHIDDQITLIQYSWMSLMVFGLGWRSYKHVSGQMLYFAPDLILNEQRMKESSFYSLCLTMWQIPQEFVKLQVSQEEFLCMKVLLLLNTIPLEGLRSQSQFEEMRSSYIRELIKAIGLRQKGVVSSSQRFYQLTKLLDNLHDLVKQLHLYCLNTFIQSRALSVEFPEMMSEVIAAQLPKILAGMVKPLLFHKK

COC[C@]1(OC)CC[C@H]2[C@@H]3CCC4=CC(=O)CCC4=C3[C@@H](c3ccc(/C=N/O)cc3)C[C@@]21C [J867, [4-[17β-Methoxy-17α-(methoxymethyl)-3-oxoestra-4,9-dien-11β-yl]benzaldehyd-(1E)-oxim]]
mean level of SHBG during treatment ([1]; 5 mg QD): remained relatively constant | mean level of SHBG during treatment ([1]; 10 mg QD): decreased from baseline | mean level of SHBG during treatment ([1]; 25 mg QD): decreased from baseline | mean testosterone concentration increase over the treatment period ([2]; 5 mg QD): 7 to 15 ng/dL | mean testosterone concentration increase over the treatment period ([2]; 10 mg QD): 15 to 21 ng/dL | mean testosterone concentration increase over the treatment period ([2]; 25 mg QD): 16 to 25 ng/dL | total testosterone levels (FIG. 1) ([2]; all doses (5, 10, 25 mg QD) compared to placebo): testosterone levels increased with all doses | visit with largest mean increase of testosterone from baseline ([2]; all three dose groups (5, 10, 25 mg QD)): 2 week | testosterone concentrations at the end of the study ([2]; all three dose groups, week 12): still elevated above baseline

CC#C[C@]1(O)CC[C@H]2[C@@H]3CCC4=CC(=O)CCC4=C3[C@@H](c3ccc(N(C)C)cc3)C[C@@]21C [RU486, mifepristone]
McPhail score (progesterone receptor): less than 0.5

CC(=O)[C@H]1CC[C@H]2[C@@H]3CCC4=CC(=O)CC[C@]4(C)[C@H]3CC[C@]12C [progesterone]
McPhail score (progesterone receptor): 4
